Data taken from the Kinase Knowledgebase extract (Sharma et al. 2016).

These compounds were tested against MAPK14 (human) (UniProt Q16539) (assay: Inhibtion of MAPK14 Kinase Activity).
Chain of MAPK14 (human) (Q16539 whole entry, looked up): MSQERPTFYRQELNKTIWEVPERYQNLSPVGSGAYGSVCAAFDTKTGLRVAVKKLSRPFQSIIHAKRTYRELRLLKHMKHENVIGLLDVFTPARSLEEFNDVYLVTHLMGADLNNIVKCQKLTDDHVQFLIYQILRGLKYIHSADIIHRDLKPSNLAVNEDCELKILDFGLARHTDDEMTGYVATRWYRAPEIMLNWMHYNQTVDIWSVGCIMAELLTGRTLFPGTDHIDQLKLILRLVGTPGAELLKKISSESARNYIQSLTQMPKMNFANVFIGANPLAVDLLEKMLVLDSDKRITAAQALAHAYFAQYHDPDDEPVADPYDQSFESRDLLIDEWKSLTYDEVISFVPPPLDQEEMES

Row | IC50 [nM] | Structure (SMILES)
1 | < 100 | Nc1c(C(=O)c2ccc(F)cc2F)ccc(=O)n1-c1ccc(CN[C@H](C(=O)OC2CCCC2)c2ccccc2)cc1
2 | < 100 | CCOC(=O)[C@H](CC(C)C)NCCCOc1cc(F)c(-n2c(N)c(C(=O)c3ccc(F)cc3)ccc2=O)c(F)c1
3 | < 100 | Cc1cc(C(=O)c2ccc(=O)n(-c3c(F)cc(OCCCN[C@@H](Cc4ccccc4)C(=O)O)cc3F)c2N)ccc1F
4 | < 100 | Cc1cc(C(=O)c2ccc(=O)n(-c3c(F)cc(OCCCN[C@H](C(=O)O)c4ccccc4)cc3F)c2N)ccc1F
5 | < 100 | Cc1cc(C(=O)c2ccc(=O)n(-c3c(F)cc(OCCCN[C@H](C(=O)OC4CCCC4)c4ccccc4)cc3F)c2N)ccc1F
6 | < 100 | CC(C)C[C@H](NCCCCCOc1cc(F)c(-n2c(N)c(C(=O)c3ccc(F)cc3F)ccc2=O)c(F)c1)C(=O)OC1CCCC1
7 | < 100 | CC(C)C[C@H](NCc1cc(F)c(-n2c(N)c(C(=O)c3ccc(F)cc3F)ccc2=O)c(F)c1)C(=O)OC1CCCC1
8 | < 100 | Nc1c(C(=O)c2ccc(F)cc2F)ccc(=O)n1-c1ccc(OCCCN[C@@H](Cc2ccccc2)C(=O)OC2CCCC2)cc1
9 | < 100 | CC(C)C[C@H](NCCCCCOc1cc(F)c(-n2c(N)c(C(=O)c3ccc(F)cc3F)ccc2=O)c(F)c1)C(=O)O
10 | < 100 | CC(C)C[C@H](NCCCOc1cc(F)c(-n2c(N)c(C(=O)c3ccc(F)cc3)ccc2=O)c(F)c1)C(=O)O
11 | < 100 | Nc1c(C(=O)c2ccc(F)cc2F)ccc(=O)n1-c1ccc(CN[C@H](C(=O)O)c2ccccc2)cc1
12 | < 100 | Cc1cc(C(=O)c2ccc(=O)n(-c3ccc(OCCCN[C@H](C(=O)OC4CCCC4)c4ccccc4)cc3)c2N)ccc1F
13 | < 100 | Nc1c(C(=O)c2ccc(F)cc2)ccc(=O)n1-c1c(F)cc(OCCCN[C@@H](Cc2ccccc2)C(=O)O)cc1F
14 | < 100 | CC(C)C[C@H](NCCCOc1ccc(-n2c(N)c(C(=O)c3ccc(F)cc3F)ccc2=O)cc1)C(=O)OC1CCCC1
15 | < 100 | Nc1c(C(=O)c2ccc(F)cc2F)ccc(=O)n1-c1c(F)cc(OCCCN[C@H](C(=O)O)C2CCCCC2)cc1F
16 | < 100 | CC(C)(C)OC(=O)[C@@H](NCCCOc1cc(F)c(-n2c(N)c(C(=O)c3ccc(F)cc3F)ccc2=O)c(F)c1)C1CCCCC1
17 | < 100 | Nc1c(C(=O)c2ccc(F)cc2F)ccc(=O)n1-c1ccc(OCCCN[C@H](C(=O)OC2CCCC2)c2ccccc2)cc1
18 | < 100 | CC(C)C[C@H](NCc1ccc(-n2c(N)c(C(=O)c3ccc(F)cc3F)ccc2=O)cc1)C(=O)O
19 | < 100 | CC(C)C[C@H](NC1CCC(Oc2cc(F)c(-n3c(N)c(C(=O)c4ccc(F)cc4)ccc3=O)c(F)c2)CC1)C(=O)O (some centres not stated)
20 | < 100 | Nc1c(C(=O)c2ccc(F)cc2)ccc(=O)n1-c1ccc(OCCCN[C@H](C(=O)OC2CCCC2)c2ccccc2)cc1
21 | < 100 | Nc1c(C(=O)c2ccc(F)cc2F)ccc(=O)n1-c1c(F)cc(OCCCN[C@@H](Cc2ccccc2)C(=O)O)cc1F
22 | < 100 | CC(C)C[C@H](NCCc1ccc(-n2c(N)c(C(=O)c3ccc(F)cc3F)ccc2=O)cc1)C(=O)O
